# Results from publication PMC4608362, “The therapeutic effect of chlorogenic acid against Staphylococcus aureus infection through sortase A inhibition” (Frontiers in Microbiology, 2015).
# Key:
# Details in all cases: read-out: Binding constants KA (1 × 10^5) L⋅mol^-1 (converted)
# Sortase A (SrtA) [1] = target: T1, Sortase A (SrtA) (Staphylococcus aureus, UniProt Q2FV99); assay: fluorescence spectroscopy quenching, binding constant KA, n = […]; also FRET inhibition of purified SrtAΔN59 (IC50 […])
# T1 construct: SrtAΔN59 (residues 60–206)
# Sortase A (SrtA) [2] = target: T2, Sortase A (SrtA) (Staphylococcus aureus, UniProt Q2FV99, G192A); assay: fluorescence spectroscopy quenching with purified mutant, binding constant KA, n = […]
# T2 construct: SrtAΔN59 (residues 60–206)
# Sortase A (SrtA) [3] = target: T3, Sortase A (SrtA) (Staphylococcus aureus, UniProt Q2FV99, C184A); assay: as above
# T3 construct: SrtAΔN59 (residues 60–206)
compound,measurement,setting,value
"O=C(/C=C/c1ccc(O)c(O)c1)O[C@@H]1C[C@](O)(C(=O)O)C[C@@H](O)[C@H]1O [CHA, chlorogenic acid]",Kd,Sortase A (SrtA) [1],1120 nM
same,Kd,Sortase A (SrtA) [2],2000 nM
same,Kd,Sortase A (SrtA) [3],2130 nM
